The text below walks through data of patent US20060229293A1, “Compositions for the treatment of hepatitis C and methods for using compositions for the treatment of hepatitis C” (Addiction Research Institute, Inc., priority 2005, published 2006).

Holding throughout (assay type): in vivo, human
Experiment [1] relates to HCV RNA genotype 3. The experiment in a line: Case report, Example 4: HCV RNA after ibogaine HCl over 48 hours. The note with it: total of 27 mg/kg over 48 hours. As to the method: A person weighing 160 lbs tested positive HCV RNA genotype 3. RNA IU/mL was 12,600,000. Subject was administered a total of 27 mg/kg of ibogaine HCl over a period of 48 hours in the following regimen: 2 mg/kg, 2 mg/kg, 2 mg/kg, 2 mg/kg, 2 mg/kg, 2 mg/kg, 12 mg/kg, and 3 mg/kg. HCV RNA IU/mL was reduced to 50,100. Prior to ibogaine therapy patient's urine was dark and stool light. Post treatment color of urine and stool were normal.

Experiment [2] concerns HCV. The experiment in a line: Case report, Example 1: HCV positive heroin user given ibogaine HCl. The note with it: person, 25 mg/kg. The procedure:
A person diagnosed as HCV positive and using ½ gram of heroin per day was administered 25 mg/kg of ibogaine HCl. Following the administration of ibogaine, heroin use ceased along with swelling of the liver and pain in the area of the liver.

For experiment [3], the system named is HCV. The experiment in a line: Case report, Example 2: liver enzyme levels in HCV positive after ibogaine HCl. To be noted: person, 14 mg/kg self-administered. As to the method:
A person testing positive for HCV and dependent on heroin and methadone self-administered 14 mg/kg of ibogaine HCl. AST was reduced from pretreatment level of 201 to post treatment level of 25. ALT was reduced from pretreatment level of 410 to post treatment level of 50. GGT level was reduced from 155 to 33.

Experiment [4] deals with HCV RNA genotype 1. The experiment in a line: Case report, Example 3: HCV RNA and liver enzymes after an escalating dose regimen of ibogaine HCl. The procedure: A person testing positive for HCV RNA genotype 1, administered the following dose regimen of ibogaine HCl. Subject weighed 79 kg. Doses administered were as total doses and not mg/kg. Day 1: 10 mg ibogaine HCl. Day 2: 20 mg ibogaine HCl. Day 3: 20 mg ibogaine HCl. Day 4: 30 mg ibogaine HCl. Day 5: 50 mg ibogaine HCl. Day 6: 75 mg ibogaine HCl. Day 8: 100 mg ibogaine HCl. Day 10: 150 mg ibogaine HCl. Day 14: 300 mg ibogaine HCl. HCV RNA IU/mL was reduced from 780,000 to 644,000. Pretreatment Alkaline Phosphatase was 99, AST was 103 and ALT 195. Post treatment Alkaline Phosphatase 88, AST 89 and ALT 127. An additional 250 mg of ibogaine HCl further reduced HCV RNA IU/mL to 384,000. A final dose within this regimen of 250 mg ibogaine was administered reducing the HCV RNA IU/mL to 154,000.

Regarding ibogaine HCl, the “HCV RNA after treatment” value in experiment [1] (person, 160 lbs, genotype 3, before treatment 12,600,000) is 50,100 IU/mL. Further, in experiment [1] (prior to therapy urine dark and stool light), the “color of urine and stool post treatment” value is “normal”. In experiment [2], the “pain in the area of the liver following administration” value is given as “ceased” and the “swelling of the liver following administration” value is on record as “ceased”. Moreover, in experiment [2] (using ½ gram of heroin per day), the “heroin use following administration” value is listed as “ceased”. The “AST post treatment level” value in experiment [3] (pretreatment level 201) was 25. Moreover, the “ALT post treatment level” value in experiment [3] (pretreatment level 410) came out at 50. The “GGT level post treatment” value in experiment [3] (reduced from 155) was 33. For the same substance, in experiment [4] (additional 250 mg after the Day 1-14 regimen, previous level 644,000), the “HCV RNA after an additional dose” value is 384,000 IU/mL. Besides, in experiment [4] (final dose of 250 mg within the regimen, previous level 384,000), the “HCV RNA after the final dose” value is reported as 154,000 IU/mL. Besides, in experiment [4] (person, 79 kg, genotype 1, total doses 10-300 mg on Days 1-14, reduced from 780,000), the “HCV RNA after regimen” value is recorded as 644,000 IU/mL. Further, in experiment [4] (person, genotype 1, Day 1-14 regimen, pretreatment 99), the “Alkaline Phosphatase post treatment” value was found to be 88. For the same substance, in experiment [4] (person, genotype 1, Day 1-14 regimen, pretreatment 103), the AST post treatment is given as 89. In addition, the ALT post treatment in experiment [4] (person, genotype 1, Day 1-14 regimen, pretreatment 195) worked out at 127.
